Measured values: PubChem BioAssay AID652002 (Sanford-Burnham Center for Chemical Genomics, 2013)
Calls of active or inactive are those of the source. How the calls were made is not given here.

Experiments:
[1] = target: NB7+Caspase-8; assay: compound enhancement of TRAIL-induced cell killing – NB7 cells plus caspase-8, luminescence, panel, dose response (AID 652002); settings: NB7 neuroblastoma +caspase-8, TRAIL sensitization, luminescence viability, with TRAIL
[2] = as above; settings: NB7 neuroblastoma +caspase-8, no TRAIL, compound-alone cytotoxicity counter-screen, luminescence viability, NB7+Caspase-8
[3] = target: Tumor necrosis factor receptor superfamily member 10B (Homo sapiens) (UniProt O14763); assay: as above; settings: NB7 neuroblastoma +caspase-8, TRAIL sensitization, luminescence viability; NB7+Caspase-8; with TRAIL, mean of runs
[4] = run 1, single replicate panel EC50
[5] = run 2, single replicate panel EC50

Chain of Tumor necrosis factor receptor superfamily member 10B (Homo sapiens) (O14763 whole entry, looked up): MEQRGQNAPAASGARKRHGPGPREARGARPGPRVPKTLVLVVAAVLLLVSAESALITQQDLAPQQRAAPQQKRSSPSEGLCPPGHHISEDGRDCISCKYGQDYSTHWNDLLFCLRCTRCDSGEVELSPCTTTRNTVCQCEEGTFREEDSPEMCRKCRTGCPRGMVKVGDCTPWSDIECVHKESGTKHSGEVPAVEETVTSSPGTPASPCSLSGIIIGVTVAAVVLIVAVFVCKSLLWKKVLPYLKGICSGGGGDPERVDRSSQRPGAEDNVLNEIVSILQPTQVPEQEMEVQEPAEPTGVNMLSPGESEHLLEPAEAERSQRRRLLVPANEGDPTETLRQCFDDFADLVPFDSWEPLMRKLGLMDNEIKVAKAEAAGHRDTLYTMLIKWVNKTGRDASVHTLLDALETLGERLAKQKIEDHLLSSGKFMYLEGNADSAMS

Structure (SMILES)	EC50 [1, 4] [µM]	EC50 [1, 5] [µM]	EC50 ([2]; mean of runs)	EC50 [2, 4] [µM]	EC50 [2, 5] [µM]	EC50 [3]
COCCNc1c(-c2cc3ccc(C)c(C)c3[nH]c2=O)nc2ccccn12	8.39	4.64	inactive	> 12.5	6.1	inactive
CC(=O)c1ccc(NC(=O)Nc2cccnc2)cc1	> 12.5	9.72	inactive	11.4	10.2	inactive
O=C(NCC1CCCO1)c1ccc2c3n(nc2c1)-c1ccccc1CO3 (stereo not given)	> 12.5	8.3	> 12.5 µM (inactive)	> 12.5	> 12.5	inactive
O=Nc1ccc(NO)c2ccccc12	> 12.5	6.54	> 12.5 µM (inactive)	> 12.5	> 12.5	inactive
CCCC1(CCC)C(=O)NC(=NCc2ccccc2)NC1=O	> 12.5	> 12.5	> 12.5 µM (inactive)	> 12.5	> 12.5	> 12.5 µM (inactive)
CCOc1ccc(NC(=O)c2ccco2)cc1	> 12.5	6.9	inactive	6.87	10.7	inactive
CCN(CC)S(=O)(=O)c1ccc(C(=O)OCC(=O)Nc2ccc(-c3nc4ccc(C)cc4s3)cc2)cc1	> 12.5	> 12.5	> 12.5 µM (inactive)	> 12.5	> 12.5	> 12.5 µM (inactive)
O=c1[nH]c(N/N=C\c2ccc3c(c2)OCO3)nc2ccccc12	> 12.5	10.1	inactive	> 12.5	10.9	inactive
COC(=O)c1ccc(/C=C(\C#N)c2ccccn2)cc1	> 12.5	> 12.5	> 12.5 µM (inactive)	> 12.5	> 12.5	> 12.5 µM (inactive)
Cc1ccc2c(c1)C(=NC1CCCCC1)c1cc3ccccc3nc1-2	> 12.5	> 12.5	> 12.5 µM (inactive)	> 12.5	> 12.5	> 12.5 µM (inactive)
CCN(CC)c1ccc(/C=N/NC(=O)c2ccco2)cc1	> 12.5	> 12.5	> 12.5 µM (inactive)	> 12.5	> 12.5	> 12.5 µM (inactive)
COc1cc(NC(=O)c2[nH]cnc2C(N)=O)cc(C(=O)Nc2cccc(C(F)(F)F)c2)c1	> 12.5	8.91	inactive	> 12.5	10.4	inactive
Cc1ccc(NC(=O)c2cc3ccccc3o2)nc1	> 12.5	8.86	inactive	7.34	11	inactive
CCCCc1nc(NCCN)c(C#N)c2c1CSC(C)(C)C2	> 12.5	> 12.5	> 12.5 µM (inactive)	> 12.5	> 12.5	> 12.5 µM (inactive)
C#Cc1ccc(NC(=O)C2(C)CCN2C(=O)Cc2ccc(C(C)C)cc2)cc1 (stereo not given)	> 12.5	> 12.5	inactive	> 12.5	8.26	> 12.5 µM (inactive)
Cc1cc(NC(=O)C2CCCC2)nc2c1c(=O)oc1ccccc12	> 12.5	> 12.5	> 12.5 µM (inactive)	> 12.5	> 12.5	> 12.5 µM (inactive)
Cc1ccc(NC(=O)CSc2nc3ccc(Nc4nc(N5CCOCC5)nc(N5CCOCC5)n4)cc3s2)cc1	> 12.5	> 12.5	> 12.5 µM (inactive)	> 12.5	> 12.5	> 12.5 µM (inactive)
COC(=O)[C@]12CCCCC=C1N(Cc1cccc3ccccc13)C(=O)[C@H](CC(=O)NCc1ccc(OC)c(OC)c1)C2	> 12.5	10.7	inactive	> 12.5	10.2	inactive
O=C(N/N=C/c1cccnc1)c1ccc2c(c1)OCO2	> 12.5	> 12.5	inactive	11.2	> 12.5	> 12.5 µM (inactive)
COC(=O)CSc1nc2cc(C)ccc2cc1C#N	> 12.5	7.44	> 12.5 µM (inactive)	> 12.5	> 12.5	inactive

Structure (SMILES)	EC50 [1, 4] [µM]	EC50 [1, 5] [µM]	EC50 ([2]; mean of runs)	EC50 [2, 4] [µM]	EC50 [2, 5] [µM]	EC50 [3]
O=C(N/N=C/c1ccc2cccnc2c1)c1ccco1	> 12.5	6.53	inactive	11.4	12.1	inactive
COc1cccc(NC(=O)c2ccc3c(c2)OCO3)c1	7.39	11	inactive	8.96	11.9	inactive
O=C(Oc1c(CN2CCOCC2)cc(Cl)c2cccnc12)c1cccs1	> 12.5	6.75	> 12.5 µM (inactive)	> 12.5	> 12.5	inactive
C/C(=N\NC(=O)c1n[nH]c2c1CCC2)c1ccco1	> 12.5	> 12.5	> 12.5 µM (inactive)	> 12.5	> 12.5	> 12.5 µM (inactive)
CC(C)C(=O)Nc1ccc(NC(=O)c2ccccn2)cn1	> 12.5	9.78	inactive	> 12.5	11.6	inactive
CCOc1ccc2nc(NC(=O)c3cccc(-c4cc5ccccc5oc4=O)c3)sc2c1	> 12.5	> 12.5	> 12.5 µM (inactive)	> 12.5	> 12.5	> 12.5 µM (inactive)
COCCCn1c(C(=O)Nc2ccc3c(c2)OCO3)cc2c(=O)n3cccc(C)c3nc21	> 12.5	> 12.5	> 12.5 µM (inactive)	> 12.5	> 12.5	> 12.5 µM (inactive)
CN1C[C@@H]2[C@@H]3C(=O)N(Cc4ccccc4)C(=O)[C@@H]3[C@](Cc3ccccc3)(C1=O)N2C(=O)c1ccc(C(C)(C)C)cc1	> 12.5	> 12.5	> 12.5 µM (inactive)	> 12.5	> 12.5	> 12.5 µM (inactive)
CC(C)(C)OC(=O)[C@H](Cc1ccccc1)NC(=O)c1[nH]cnc1C(=O)Nc1ccccc1F	> 12.5	> 12.5	> 12.5 µM (inactive)	> 12.5	> 12.5	> 12.5 µM (inactive)
O=C1CCCCC1Sc1nnc(-c2ccc3c(c2)OCO3)o1 (stereo not given)	> 12.5	> 12.5	inactive	> 12.5	11	> 12.5 µM (inactive)
CC(C)C[C@H](NC(=O)c1nc[nH]c1C(=O)N[C@@H](CCCCNC(=O)OC(C)(C)C)C(=O)OC(C)(C)C)C(=O)OCc1ccccc1	> 12.5	> 12.5	> 12.5 µM (inactive)	> 12.5	> 12.5	> 12.5 µM (inactive)
O=C(Nc1ccc2c(c1)OCCO2)NC1CCCCC1	> 12.5	12	> 12.5 µM (inactive)	> 12.5	> 12.5	inactive
CCOC(=O)[C@]12Cc3cc4ccccc4cc3[C@H]1N(Cc1ccccc1)C(=O)c1ccccc12	> 12.5	> 12.5	> 12.5 µM (inactive)	> 12.5	> 12.5	> 12.5 µM (inactive)
O=C(NNC(=O)c1cc(OCC(F)(F)F)ccc1OCC(F)(F)F)c1ccc(Cl)c(Cl)c1	> 12.5	> 12.5	> 12.5 µM (inactive)	> 12.5	> 12.5	> 12.5 µM (inactive)
O=C(Nc1ccc(C(=O)O)cc1)/C(=C\C=C\c1ccccc1)NC(=O)c1ccccc1Cl	> 12.5	3.5	inactive	7.94	> 12.5	inactive
CCOc1ccc(-c2nnc(-c3ccccc3)o2)cc1	> 12.5	10.7	> 12.5 µM (inactive)	> 12.5	> 12.5	inactive
CCCCCc1cc(=O)oc2c(C(CCN(CC)CC)c3cc(OC)c(OC)c(OC)c3)c(OC)cc(OC)c12 (stereo not given)	> 12.5	10.3	> 12.5 µM (inactive)	> 12.5	> 12.5	inactive
COC(=O)c1ccc(/C=C/c2nc3ccccc3c(=O)[nH]2)cc1	> 12.5	> 12.5	> 12.5 µM (inactive)	> 12.5	> 12.5	> 12.5 µM (inactive)
C=Cc1ccc(Cn2c(C)c(C(=O)NCc3cccc(C(F)(F)F)c3)sc2=O)cc1	> 12.5	> 12.5	> 12.5 µM (inactive)	> 12.5	> 12.5	> 12.5 µM (inactive)
O=C(Nc1ccc(Br)cc1F)c1ccc2c(c1)OCCO2	> 12.5	12.5	inactive	> 12.5	11.2	inactive
